Entries after “also recorded” stand apart in the source; their conditions may differ. Like-named read-outs stand apart in the source and are kept apart here.
Key:
EAEC strain O42 = assay type: cell-based, E. coli
[1] = test system: B. anthracis Sterne strain 7702; assay type: cell-based; conditions: pretreated A549 cells, vs other treatment groups
EAEC [2] = experiment: Effect of dialyzed supernatants of treated HEp-2 cells on EAEC adherence; assay type: cell-based, E. coli; conditions: HEp-2 treated 24 h with 64 mg/ml (so in the source); chambered slides with or without HEp-2 cells, 3 h
Experimental: Supernatant dialysis. HEp-2 cells were cultured in T-175 flasks as described above. […] After 24 h, the medium was collected, loaded into regenerated cellulose dialysis tubing (cutoff, 6 to 8 kDa; Spectra/Por, Rancho Domiguez, Calif.), and dialyzed against 4 liters of PBS changed four times. Each dialysis step lasted at least 6 h and was carried out at 4° C. Dialyzed supernatants were either used immediately in adherence assays or stored at −20° C. until use.
The effect of supernatants on EAEC adherence was determined by mixing EAEC with the dialyzed media from the different antibiotic (or control) treatment groups and adding the bacteria to HEp-2 cells cultured in chambered slides or to chambered slides with no HEp-2 cells. Adherence was visualized microscopically as described above.

[3] = test system: enterotoxigenic E coli strains; experiment: MIC against rifaximin by agar dilution, ETEC isolates; assay type: cell-based
From the text: (§1) Five enterotoxigenic E coli strains, 2 enteroaggregative E coli strains, and 1 S sonnei isolate were included in the study. The isolates had been identified previously from patients with TD acquired in Guadalajara, Mexico, during the summer of 2004 (5).

[4] = test system: enteroaggregative E coli strains; experiment: MIC against rifaximin by agar dilution, EAEC isolates; assay type: cell-based; conditions: 2 EAEC isolates
From the text: as §1

S sonnei isolate [5] = experiment: MIC against rifaximin by agar dilution, S sonnei isolate; assay type: cell-based
From the text: as §1

S sonnei isolate [6] = experiment: Isolate viability after rifaximin exposure, S sonnei; assay type: cell-based
S sonnei isolate [7] = experiment: MMP-9 detection by gelatin zymography in S sonnei isolate after rifaximin exposure; assay type: cell-based
Experimental: Expression of matrix metalloproteinase-9 (MMP-9) was analyzed using gelatin zymography in all viable EAEC and S. sonnei isolates growing on MacConkey agar. Isolates were suspended in 1 mL of 0.1 M phosphate buffered saline (pH 7.2) and centrifuged at 1000 g for 10 minutes at 4° C. The supernatant was subjected to gelatin zymography to detect MMP-9 activity using a modified Heussen and Dowdle protocol (9). In summary, the supernatant was diluted 1:2 in a sample buffer (125 mM Tris-HCl, pH 6.8, 20% glycerol, 4% sodium dodecyl sulfate, 0.02% bromphenol blue), and 20 μL was loaded on to a 10% SDS-PAGE gel containing 1 mg/mL gelatin. Prestained standard proteins were used as molecular weight markers. After electrophoresis, gels were rinsed with incubation buffer (2.5% triton X-100, 50 mM Tris-HCl, pH 7.4, 0.02% Brij 35, 10 mM CaCl2, 2 μM ZnCl2) for 1 hour at room temperature to remove SDS. Gels were then incubated overnight at 37° C. and subsequently stained with Coomassie brilliant blue R-250 (Thermo Fisher Scientific, Inc, Rockford, Ill.). […] Matrix metalloproteinase-9 was identified among all gelatinolytic proteins by size.

EAEC strains = experiment: HCT-8 cell culture assay for IL-8 release after infection with rifaximin-exposed EAEC; assay type: cell-based, E coli
Experimental: The human intestinal adenocarcinoma cell line, HCT-8, was used to study inflammatory modulators as previously published (Huang, 2004 #15). Monolayers of HCT-8 cells (ATCC CCL-244; American Type Culture Collection, Rockville, Md.) were grown in 24-well culture plates (Corning Costar, Corning, N.Y.) in an RPMI 1640 medium (Sigma-Aldrich Co, St Louis, Mo.) supplemented with 100 U/mL of penicillin, 100 μg/mL of streptomycin, and 0.25 μg/mL of amphotericin B. They were maintained in a medium supplemented with 10% fetal bovine serum (HyClone, Logan, Utah) and grown until approximately 4×10^5 cells/well confluence.
HCT-8 cells were infected with EAEC strains recovered from MacConkey agar in triplicate at a 100:1 ratio in an antibiotic- and serum-free RPMI 1640 medium. Cells were incubated for 3 hours in a humidified chamber at 37° C. in an atmosphere containing 5% CO2, after which supernatants were collected. The supernatant concentration of IL-8 in each well was determined by using a commercially available enzyme-linked immunosorbent assay kit for human IL-8 (R&D Systems, Minneapolis, Minn.). All samples were tested twice, and the average value was reported.

EAEC [8] = experiment: MIC50 previously established for EAEC; assay type: cell-based, E. coli; conditions: previously established in our laboratory
C difficile isolates [9] = conditions: cited from earlier work
C difficile isolates [10] = conditions: 201 C difficile isolates, Canada, cited from earlier work
HEp-2 cells = experiment: Cytokine array of supernatants of treated HEp-2 cells; conditions: 64 μg/ml, 24 h; Panomics array of 36 cytokines
C difficile isolates [11] = experiment: In vitro susceptibility of C difficile isolates (agar dilution for rifaximin, Etest for rifampin)
[12] = 24 h pretreatment with 64 mg (sic; FIG. 2: 64 μg/ml)
[13] = 110 C difficile isolates, 1983 to 2004
[14] = resistance = MIC≥32 μg/mL, for rifaximin b194 says 'rifaximin alone'

## (2S,16Z,18E,20S,21S ,22R, 23R,24R,255,265,275,28E)-5,6,21,23,25 Pentahydroxy-27-methoxy-2,4,11,16,20,22,24,26-octamethyl-2,7-(epoxypentadeca-(1,11,13) trienimino) benzofuro (4,5-e) pyrido(1,2,-a) benzimidazole-1,15(2H)-dione,25-acetate [Rifaximin]
EAEC strain O42
  EAEC adherence to pretreated HEp-2 cells, quantified by CFU: significantly lower; also recorded: reduced EAEC adherence
EAEC strain O42; [12]
  EAEC adherence to A549 cells: significantly reduced
  EAEC adherence to HCT-8 cells: not significant
  EAEC adherence to HEp-2 cells: significantly reduced
  EAEC adherence to HeLa cells: significantly reduced
EAEC strain O42; HEp-2 cells pretreated 24 h, washed, EAEC 3 h, Wright-Giemsa staining
  EAEC O42 adherence to pretreated HEp-2 cells (microscopy, stacked-brick pattern): greatly reduced
EAEC strain O42; after 3 h incubation with pretreated HEp-2 cells
  EAEC bacterial counts in the supernatants (viability): No differences; also recorded: without affecting EAEC viability
[1]; gentamicin protection
  Internalization of B. anthracis: significant reductions
[1]
  Adherence of B. anthracis: significant reductions
EAEC [2]
  Adherence of EAEC mixed with dialyzed supernatants from treated HEp-2 cells: adhered poorly; also recorded: affected EAEC adherence
[3]; 2 ETEC isolates
  MIC: 128 µg/mL
[3]; 3 ETEC isolates
  MIC: 64 µg/mL
[4]
  MIC: 64 µg/mL
S sonnei isolate [5]
  MIC: 16 µg/mL
S sonnei isolate [6]; rifaximin 8 mg/L for 4, 8, 18, and 24 hours
  S sonnei viability: viable
S sonnei isolate [6]; rifaximin 32 or 64 mg/L at any time point examined
  S sonnei viability: not viable
S sonnei isolate [7]; other time points and rifaximin concentrations
  MMP-9 in the S sonnei isolate: either undetectable or the isolate was not viable
S sonnei isolate [7]; rifaximin 8 mg/L for 4 hours
  MMP-9 in the S sonnei isolate: detectable
EAEC strains; all other time points and rifaximin concentrations
  IL-8 production from HCT-8 cells elicited by rifaximin-exposed EAEC: either undetected following HCT-8 infection with EAEC strains, or EAEC strains were not viable
EAEC strains; rifaximin 64 mg/L for 4 hours
  IL-8 production from HCT-8 cells elicited by rifaximin-exposed EAEC: caused IL-8 production
EAEC strains; rifaximin 8 or 32 mg/L for 4 or 8 hours
  IL-8 production from HCT-8 cells elicited by rifaximin-exposed EAEC: elicited production of IL-8
EAEC strains; viable isolates, rifaximin 8, 32, or 64 mg/L for 18 hours or 8 mg/L for 24 hours
  IL-8 production from HCT-8 cells elicited by rifaximin-exposed EAEC: did not elicit IL-8 production
EAEC [8]
  MIC50 for EAEC: 64 µg/mL
C difficile isolates [9]; 110 C difficile isolates from multiple locations
  Isolates resistant to rifaximin, based on MIC values: 2.7%
C difficile isolates [9]; [13]
  MIC50: 0.0075 µg/mL
  MIC90: 0.015 µg/mL
C difficile isolates [10]; 1992 to 2007
  MIC50: 0.008 µg/mL
  MIC90: 0.015 µg/mL
C difficile isolates [10]
  Isolates with MIC values >2 μg/mL: 4%
HEp-2 cells
  Cytokines detected in supernatants of treated HEp-2 cells: detectable levels of RANTES and IL-4 only; also recorded: reduced the expression of various proinflammatory cytokines
C difficile isolates [11]; 359 C difficile isolates
  MIC50: <0.01 µg/mL
  MIC90: 0.25 µg/mL
C difficile isolates [11]; 359 C difficile isolates, listed as rifaximin
  MIC50: < 0.01 µg/mL
C difficile isolates [11]; MIC≥32 μg/mL
  Isolates resistant to both rifampin and rifaximin, percent of 359: 2%
C difficile isolates [11]; [14]
  Resistant isolates, number of 359: 11
  Resistant isolates, percent of 359: 3%

Source: patent publication US20200069664A1, “METHODS FOR TREATING INFECTION” (Salix Pharmaceuticals, Ltd, priority 2010, published 2020)
